In brackets after ≈: the same amount, converted by molar mass.
Key:
Format in all cases: functional
Enterococcus = assay: In vitro antibacterial activity against Enterococcus ATCC 29212
Escherichia coli [1] = assay: In vitro antibacterial activity against Escherichia coli J3272 Tet C
Escherichia coli [2] = assay: In vitro antibacterial activity against Escherichia coli J3272 Tet D
Escherichia coli [3] = assay: In vitro antibacterial activity against Escherichia coli PRP1 Tet A
Escherichia coli [4] = assay: In vitro antibacterial activity against Escherichia coli UBMS 88-1 Tet B
Escherichia coli [5] = assay: In vitro antibacterial activity against Escherichia coli UBMS 90-4 Tet M
Escherichia coli [6] = assay: In vitro antibacterial activity against Escherichia coli UBMS 90-5 sensitive
Staphylococcus aureus [7] = assay: In vitro antibacterial activity against Staphylococcus aureus Smith sensitive
Staphylococcus aureus [8] = assay: In vitro antibacterial activity against Staphylococcus aureus UBMS 90-1 Tet M
Staphylococcus aureus [9] = assay: In vitro antibacterial activity against Staphylococcus aureus UBMS 90-3 sensitive
Staphylococcus aureus [10] = assay: In vitro antibacterial activity against Staphylococcus aureus UBMS 88-7 Tet K

MIC (Enterococcus) [µg/mL]	MIC (Escherichia coli [1]) [µg/mL]	MIC (Escherichia coli [2]) [µg/mL]	MIC (Escherichia coli [3]) [µg/mL]	MIC (Escherichia coli [4]) [µg/mL]	MIC (Escherichia coli [5]) [µg/mL]	MIC (Escherichia coli [6]) [µg/mL]	MIC (Staphylococcus aureus [7]) [µg/mL]	MIC (Staphylococcus aureus [8]) [µg/mL]	MIC (Staphylococcus aureus [9]) [µg/mL]	MIC (Staphylococcus aureus [10]) [µg/mL]	Compound
0.25 (≈ 0.406 µM)	> 32	16 (≈ 26 µM)	> 32	> 32	> 32	> 32	0.5 (≈ 0.812 µM)	1 (≈ 1.62 µM)	1 (≈ 1.62 µM)	4 (≈ 6.5 µM)	CN(C)c1cc(NC(=O)CN2CCSCC2)c(O)c2c1CC1CC3[C@H](N(C)C)C(=O)C(C(N)=O)=C(O)[C@@]3(O)C(=O)C1=C2O (stereo not given in full)
0.12 (≈ 0.196 µM)	0.5 (≈ 0.815 µM)	0.12 (≈ 0.196 µM)	0.5 (≈ 0.815 µM)	0.5 (≈ 0.815 µM)	0.25 (≈ 0.407 µM)	0.25 (≈ 0.407 µM)	0.12 (≈ 0.196 µM)	0.25 (≈ 0.407 µM)	0.06 (≈ 0.0978 µM)	2 (≈ 3.26 µM)	CCCCCCNCC(=O)Nc1cc(N(C)C)c2c(c1O)C(=O)C1=C(O)[C@]3(O)C(O)=C(C(N)=O)C(=O)[C@@H](N(C)C)C3CC1C2 (stereo not given in full)
0.25 (≈ 0.439 µM)	8 (≈ 14 µM)	2 (≈ 3.51 µM)	32 (≈ 56.2 µM)	4 (≈ 7.02 µM)	2 (≈ 3.51 µM)	2 (≈ 3.51 µM)	0.25 (≈ 0.439 µM)	0.5 (≈ 0.878 µM)	0.5 (≈ 0.878 µM)	4 (≈ 7.02 µM)	CN(C)c1cc(NC(=O)CNC2CC2)c(O)c2c1CC1CC3[C@H](N(C)C)C(=O)C(C(N)=O)=C(O)[C@@]3(O)C(=O)C1=C2O (stereo not given in full)
0.12 (≈ 0.205 µM)	0.5 (≈ 0.854 µM)	0.25 (≈ 0.427 µM)	1 (≈ 1.71 µM)	0.5 (≈ 0.854 µM)	0.25 (≈ 0.427 µM)	0.5 (≈ 0.854 µM)	0.12 (≈ 0.205 µM)	0.5 (≈ 0.854 µM)	0.25 (≈ 0.427 µM)	2 (≈ 3.41 µM)	CCCCNCC(=O)Nc1cc(N(C)C)c2c(c1O)C(=O)C1=C(O)[C@]3(O)C(O)=C(C(N)=O)C(=O)[C@@H](N(C)C)C3CC1C2 (stereo not given in full)
0.06 (≈ 0.1 µM)	0.25 (≈ 0.418 µM)	0.5 (≈ 0.837 µM)	1 (≈ 1.67 µM)	0.5 (≈ 0.837 µM)	0.5 (≈ 0.837 µM)	0.5 (≈ 0.837 µM)	0.12 (≈ 0.201 µM)	0.25 (≈ 0.418 µM)	0.12 (≈ 0.201 µM)	0.25 (≈ 0.418 µM)	CN(C)c1cc(NC(=O)CN2CCCCC2)c(O)c2c1CC1CC3[C@H](N(C)C)C(=O)C(C(N)=O)=C(O)[C@@]3(O)C(=O)C1=C2O (stereo not given in full)
0.12 (≈ 0.192 µM)	0.5 (≈ 0.802 µM)	0.25 (≈ 0.401 µM)	1 (≈ 1.6 µM)	0.5 (≈ 0.802 µM)	0.5 (≈ 0.802 µM)	0.5 (≈ 0.802 µM)	0.25 (≈ 0.401 µM)	0.5 (≈ 0.802 µM)	0.25 (≈ 0.401 µM)	0.5 (≈ 0.802 µM)	CN(C)c1cc(NC(=O)CNC2CC3CCC2C3)c(O)c2c1CC1CC3[C@H](N(C)C)C(=O)C(C(N)=O)=C(O)[C@@]3(O)C(=O)C1=C2O (stereo not given in full)
2 (≈ 2.92 µM)	32 (≈ 46.8 µM)	32 (≈ 46.8 µM)	32 (≈ 46.8 µM)	32 (≈ 46.8 µM)	32 (≈ 46.8 µM)	16 (≈ 23.4 µM)	0.5 (≈ 0.731 µM)	16 (≈ 23.4 µM)	0.5 (≈ 0.731 µM)	2 (≈ 2.92 µM)	CCCCCCCCCCCNCC(=O)Nc1cc(N(C)C)c2c(c1O)C(=O)C1=C(O)[C@]3(O)C(O)=C(C(N)=O)C(=O)[C@@H](N(C)C)C3CC1C2 (stereo not given in full)
0.25 (≈ 0.391 µM)	2 (≈ 3.13 µM)	0.5 (≈ 0.782 µM)	2 (≈ 3.13 µM)	4 (≈ 6.25 µM)	2 (≈ 3.13 µM)	4 (≈ 6.25 µM)	0.5 (≈ 0.782 µM)	1 (≈ 1.56 µM)	0.25 (≈ 0.391 µM)	0.5 (≈ 0.782 µM)	CN(C)c1cc(NC(=O)CNC2CCCCCCC2)c(O)c2c1CC1CC3[C@H](N(C)C)C(=O)C(C(N)=O)=C(O)[C@@]3(O)C(=O)C1=C2O (stereo not given in full)
0.25 (≈ 0.428 µM)	0.5 (≈ 0.857 µM)	0.25 (≈ 0.428 µM)	4 (≈ 6.85 µM)	0.5 (≈ 0.857 µM)	0.5 (≈ 0.857 µM)	0.5 (≈ 0.857 µM)	0.5 (≈ 0.857 µM)	1 (≈ 1.71 µM)	0.5 (≈ 0.857 µM)	4 (≈ 6.85 µM)	CN(C)c1cc(NC(=O)CNCC2CC2)c(O)c2c1CC1CC3[C@H](N(C)C)C(=O)C(C(N)=O)=C(O)[C@@]3(O)C(=O)C1=C2O (stereo not given in full)
0.25 (≈ 0.403 µM)	2 (≈ 3.23 µM)	0.5 (≈ 0.807 µM)	4 (≈ 6.45 µM)	2 (≈ 3.23 µM)	0.5 (≈ 0.807 µM)	0.5 (≈ 0.807 µM)	0.25 (≈ 0.403 µM)	0.5 (≈ 0.807 µM)	0.25 (≈ 0.403 µM)	2 (≈ 3.23 µM)	CN(C)c1cc(NC(=O)CNCc2ccccc2)c(O)c2c1CC1CC3[C@H](N(C)C)C(=O)C(C(N)=O)=C(O)[C@@]3(O)C(=O)C1=C2O (stereo not given in full)
2 (≈ 3.22 µM)	16 (≈ 25.8 µM)	8 (≈ 12.9 µM)	32 (≈ 51.6 µM)	16 (≈ 25.8 µM)	8 (≈ 12.9 µM)	16 (≈ 25.8 µM)	4 (≈ 6.44 µM)	8 (≈ 12.9 µM)	4 (≈ 6.44 µM)	32 (≈ 51.6 µM)	CN(C)c1cc(NC(=O)CNCc2ccccn2)c(O)c2c1CC1CC3[C@H](N(C)C)C(=O)C(C(N)=O)=C(O)[C@@]3(O)C(=O)C1=C2O (stereo not given in full)
0.5 (≈ 0.843 µM)	> 32	32 (≈ 53.9 µM)	> 32	> 32		16 (≈ 27 µM)	0.5 (≈ 0.843 µM)	1 (≈ 1.69 µM)	0.5 (≈ 0.843 µM)	2 (≈ 3.37 µM)	CN(C)c1cc(NC(=O)CBr)c(O)c2c1CC1CC3[C@H](N(C)C)C(=O)C(C(N)=O)=C(O)[C@@]3(O)C(=O)C1=C2O (stereo not given in full)
0.12 (≈ 0.206 µM)	0.25 (≈ 0.428 µM)	0.12 (≈ 0.206 µM)	0.5 (≈ 0.857 µM)	0.25 (≈ 0.428 µM)	0.25 (≈ 0.428 µM)	0.25 (≈ 0.428 µM)	0.12 (≈ 0.206 µM)	0.12 (≈ 0.206 µM)	0.12 (≈ 0.206 µM)	0.5 (≈ 0.857 µM)	CN(C)c1cc(NC(=O)CN2CCCC2)c(O)c2c1CC1CC3[C@H](N(C)C)C(=O)C(C(N)=O)=C(O)[C@@]3(O)C(=O)C1=C2O (stereo not given in full)
0.5 (≈ 0.92 µM)	8 (≈ 14.7 µM)	0.5 (≈ 0.92 µM)	16 (≈ 29.4 µM)	1 (≈ 1.84 µM)		1 (≈ 1.84 µM)	0.5 (≈ 0.92 µM)	1 (≈ 1.84 µM)	0.5 (≈ 0.92 µM)	16 (≈ 29.4 µM)	CNCC(=O)Nc1cc(N(C)C)c2c(c1O)C(=O)C1=C(O)[C@]3(O)C(O)=C(C(N)=O)C(=O)[C@@H](N(C)C)C3CC1C2 (stereo not given in full)
0.06 (≈ 0.108 µM)	1 (≈ 1.79 µM)	0.12 (≈ 0.215 µM)	1 (≈ 1.79 µM)	0.25 (≈ 0.448 µM)	0.25 (≈ 0.448 µM)	0.25 (≈ 0.448 µM)	0.06 (≈ 0.108 µM)	0.25 (≈ 0.448 µM)	0.03 (≈ 0.0538 µM)	0.25 (≈ 0.448 µM)	CN(C)CC(=O)Nc1cc(N(C)C)c2c(c1O)C(=O)C1=C(O)[C@]3(O)C(O)=C(C(N)=O)C(=O)[C@@H](N(C)C)C3CC1C2 (stereo not given in full)
2 (≈ 3.34 µM)	> 32	32 (≈ 53.4 µM)	> 32	> 32		> 32	2 (≈ 3.34 µM)	4 (≈ 6.67 µM)	2 (≈ 3.34 µM)	32 (≈ 53.4 µM)	CN(C)c1cc(NC(=O)CN2CCOCC2)c(O)c2c1CC1CC3[C@H](N(C)C)C(=O)C(C(N)=O)=C(O)[C@@]3(O)C(=O)C1=C2O (stereo not given in full)
4 (≈ 6.89 µM)	> 32	32 (≈ 55.1 µM)	> 32	> 32	> 32	> 32	4 (≈ 6.89 µM)	32 (≈ 55.1 µM)	4 (≈ 6.89 µM)	32 (≈ 55.1 µM)	CN(C)c1cc(NC(=O)Cn2ccnc2)c(O)c2c1CC1CC3[C@H](N(C)C)C(=O)C(C(N)=O)=C(O)[C@@]3(O)C(=O)C1=C2O (stereo not given in full)
0.25 (≈ 0.439 µM)	0.5 (≈ 0.878 µM)	0.12 (≈ 0.211 µM)	1 (≈ 1.76 µM)	0.5 (≈ 0.878 µM)	0.25 (≈ 0.439 µM)	0.25 (≈ 0.439 µM)	0.25 (≈ 0.439 µM)	0.25 (≈ 0.439 µM)	0.12 (≈ 0.211 µM)	2 (≈ 3.51 µM)	CN(C)c1cc(NC(=O)CN2CCC2)c(O)c2c1CC1CC3[C@H](N(C)C)C(=O)C(C(N)=O)=C(O)[C@@]3(O)C(=O)C1=C2O (stereo not given in full)
0.12 (≈ 0.201 µM)	0.25 (≈ 0.418 µM)	0.12 (≈ 0.201 µM)	1 (≈ 1.67 µM)	0.25 (≈ 0.418 µM)	0.25 (≈ 0.418 µM)	0.25 (≈ 0.418 µM)	0.25 (≈ 0.418 µM)	0.25 (≈ 0.418 µM)	0.12 (≈ 0.201 µM)	2 (≈ 3.35 µM)	CN(C)c1cc(NC(=O)CNC2CCCC2)c(O)c2c1CC1CC3[C@H](N(C)C)C(=O)C(C(N)=O)=C(O)[C@@]3(O)C(=O)C1=C2O (stereo not given in full)
0.25 (≈ 0.437 µM)	0.5 (≈ 0.875 µM)	0.12 (≈ 0.21 µM)	2 (≈ 3.5 µM)	0.5 (≈ 0.875 µM)	0.25 (≈ 0.437 µM)	0.5 (≈ 0.875 µM)	0.25 (≈ 0.437 µM)	0.5 (≈ 0.875 µM)	0.25 (≈ 0.437 µM)	2 (≈ 3.5 µM)	CCCNCC(=O)Nc1cc(N(C)C)c2c(c1O)C(=O)C1=C(O)[C@]3(O)C(O)=C(C(N)=O)C(=O)[C@@H](N(C)C)C3CC1C2 (stereo not given in full)
4 (≈ 8.74 µM)	32 (≈ 69.9 µM)	4 (≈ 8.74 µM)	> 32	> 32	16 (≈ 35 µM)	16 (≈ 35 µM)	2 (≈ 4.37 µM)	8 (≈ 17.5 µM)	2 (≈ 4.37 µM)	16 (≈ 35 µM)	CN(C)c1ccc(O)c2c1C[C@H]1C[C@H]3[C@H](N(C)C)C(O)=C(C(N)=O)C(=O)[C@@]3(O)C(O)=C1C2=O [MINOCYCLINE]
16 (≈ 36 µM)	> 32	8 (≈ 18 µM)	32 (≈ 72 µM)	> 32	> 32	1 (≈ 2.25 µM)	0.25 (≈ 0.563 µM)	> 32	0.25 (≈ 0.563 µM)	> 32	CN(C)[C@@H]1C(O)=C(C(N)=O)C(=O)[C@@]2(O)C(O)=C3C(=O)c4c(O)cccc4[C@@](C)(O)[C@H]3C[C@@H]12 [TETRACYCLINE]
0.12 (≈ 0.205 µM)	0.25 (≈ 0.427 µM)	0.12 (≈ 0.205 µM)	0.25 (≈ 0.427 µM)	0.5 (≈ 0.854 µM)	0.12 (≈ 0.205 µM)	0.25 (≈ 0.427 µM)	0.25 (≈ 0.427 µM)	0.12 (≈ 0.205 µM)	0.25 (≈ 0.427 µM)	0.5 (≈ 0.854 µM)	CN(C)c1cc(NC(=O)CNC(C)(C)C)c(O)c2c1C[C@H]1C[C@H]3[C@H](N(C)C)C(O)=C(C(N)=O)C(=O)[C@@]3(O)C(O)=C1C2=O [TIGECYCLINE]

— ChEMBL document CHEMBL1131723, “Synthesis and structure-activity relationship of novel glycylcycline derivatives leading to the discovery of GAR-936” (1999)
